Test results: ChEMBL document CHEMBL1201862, “PubChem BioAssay data set” (2004)
The source made the active and inactive calls.

What was measured:
[1] = biological target: T1, Tyrosine-protein phosphatase non-receptor type 7 (Homo sapiens, UniProt P35236); test: HePTP (PTPN7) phosphatase inhibitor potency, SAR follow-up, biochemical, set 2 (AID 449736); format: functional
T1 sequence (P35236 whole entry): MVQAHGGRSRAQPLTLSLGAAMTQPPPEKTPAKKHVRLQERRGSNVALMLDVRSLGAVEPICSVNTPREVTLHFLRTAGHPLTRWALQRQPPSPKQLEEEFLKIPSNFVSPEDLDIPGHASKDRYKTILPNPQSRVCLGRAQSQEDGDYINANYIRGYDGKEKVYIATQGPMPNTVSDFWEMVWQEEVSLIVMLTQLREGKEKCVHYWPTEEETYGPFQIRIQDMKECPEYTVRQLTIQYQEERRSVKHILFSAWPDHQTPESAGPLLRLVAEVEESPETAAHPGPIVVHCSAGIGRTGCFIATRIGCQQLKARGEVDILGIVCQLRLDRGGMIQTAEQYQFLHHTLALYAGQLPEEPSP

[2] = biological target: T2, G-protein coupled receptor 55 (Homo sapiens, UniProt Q9Y2T6); test: GPR55 antagonists, SAR follow-up, counter-screen for GPR35 antagonist project, imaging, image-based (AID 2397); format: functional
[3] = biological target: T3, Tyrosine-protein phosphatase non-receptor type 12 (Homo sapiens, UniProt Q05209); test: SAR Selectivity Analysis of small molecule inhibitors of PEST using pCAP in a fluorescence assay. [Related pubchem assays (depositor defined):AID1779, AID1784, AID2135]; format: functional
T3 sequence (Q05209 whole entry): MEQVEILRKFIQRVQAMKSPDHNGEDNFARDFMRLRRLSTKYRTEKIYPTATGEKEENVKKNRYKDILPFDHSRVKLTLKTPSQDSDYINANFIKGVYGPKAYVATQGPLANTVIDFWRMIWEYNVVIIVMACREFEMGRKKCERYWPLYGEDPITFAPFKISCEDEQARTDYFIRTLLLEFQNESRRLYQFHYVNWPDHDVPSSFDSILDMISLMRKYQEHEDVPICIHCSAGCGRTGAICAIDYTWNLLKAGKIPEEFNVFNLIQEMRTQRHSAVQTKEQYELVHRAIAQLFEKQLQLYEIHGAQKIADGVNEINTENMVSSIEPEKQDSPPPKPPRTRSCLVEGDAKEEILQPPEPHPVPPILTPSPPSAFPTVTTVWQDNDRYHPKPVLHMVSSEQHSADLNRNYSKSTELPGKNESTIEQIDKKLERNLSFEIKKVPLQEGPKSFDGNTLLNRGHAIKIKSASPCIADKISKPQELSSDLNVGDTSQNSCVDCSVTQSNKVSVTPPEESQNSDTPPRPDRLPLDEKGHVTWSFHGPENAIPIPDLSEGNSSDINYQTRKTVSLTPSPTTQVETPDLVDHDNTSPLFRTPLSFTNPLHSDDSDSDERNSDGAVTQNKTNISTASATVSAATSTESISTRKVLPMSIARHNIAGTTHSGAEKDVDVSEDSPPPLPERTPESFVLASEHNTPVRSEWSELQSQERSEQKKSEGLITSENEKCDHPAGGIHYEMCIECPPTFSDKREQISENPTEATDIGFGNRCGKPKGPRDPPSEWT

[4] = biological target: T4, Tyrosine-protein phosphatase non-receptor type 22 (Homo sapiens, UniProt Q9Y2R2); test: LYP (PTPN22) phosphatase inhibitor potency, SAR follow-up, biochemical, pCAP fluorogenic substrate, fluorescence, set 3 (AID 449727); format: functional
T4 sequence (Q9Y2R2 whole entry): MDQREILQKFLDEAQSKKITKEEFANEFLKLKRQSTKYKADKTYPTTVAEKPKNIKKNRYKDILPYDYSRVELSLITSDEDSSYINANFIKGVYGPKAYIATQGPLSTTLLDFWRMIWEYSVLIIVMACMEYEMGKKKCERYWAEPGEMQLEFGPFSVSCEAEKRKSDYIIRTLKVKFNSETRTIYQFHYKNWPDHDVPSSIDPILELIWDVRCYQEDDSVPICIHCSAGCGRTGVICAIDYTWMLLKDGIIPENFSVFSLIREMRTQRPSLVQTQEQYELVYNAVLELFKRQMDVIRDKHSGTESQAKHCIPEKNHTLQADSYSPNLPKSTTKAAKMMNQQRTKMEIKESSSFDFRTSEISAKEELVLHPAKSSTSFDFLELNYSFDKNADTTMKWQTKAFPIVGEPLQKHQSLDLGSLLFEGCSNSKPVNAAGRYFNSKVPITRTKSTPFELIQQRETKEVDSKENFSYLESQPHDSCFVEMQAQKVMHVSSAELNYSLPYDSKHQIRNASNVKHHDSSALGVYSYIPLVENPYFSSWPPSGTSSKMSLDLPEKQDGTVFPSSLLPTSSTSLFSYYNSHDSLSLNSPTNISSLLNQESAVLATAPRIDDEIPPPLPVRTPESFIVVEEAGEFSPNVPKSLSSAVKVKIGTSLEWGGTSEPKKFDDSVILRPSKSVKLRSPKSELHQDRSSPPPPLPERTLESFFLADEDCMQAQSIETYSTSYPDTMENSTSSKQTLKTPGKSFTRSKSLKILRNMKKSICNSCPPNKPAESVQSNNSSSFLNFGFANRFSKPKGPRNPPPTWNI

[5] = biological target: T5, G-protein coupled receptor 35 (Homo sapiens, UniProt Q9HC97); test: SAR Analysis for the identification of Selective Antagonists of ERK1/2 Activity in GPR35-Overexpressing U2OS Cells. [Related pubchem assays: 2079, 2058 ]; format: functional, cell-based
[6] = biological target: T4, Tyrosine-protein phosphatase non-receptor type 22; test: SAR LYP1 Fluorescent Assay using OMFP substrate for In Vitro dose response studies - Set 3. [Related pubchem assays (depositor defined):AID1779, AID1784, AID2140, AID2686]; format: functional
[7] = biological target: T2, G-protein coupled receptor 55; test: SAR Analysis of Selective Antagonists of GPR55 using an Image-Based Assay - Set 4. [Related pubchem assays (depositor defined):AID2013, AID2026]; format: functional
[8] = biological target: T6, Cannabinoid receptor 2 (Homo sapiens, UniProt P34972); test: SAR analysis of agonists of the Cannabinoid Receptor 2 using an Image-Based Assay - Set 3. [Related pubchem assays (depositor defined):AID2013, AID2026]; format: functional
[9] = biological target: T6, Cannabinoid receptor 2; test: SAR analysis of antagonists of the Cannabinoid Receptor 2 using an Image-Based Assay - Set 3. [Related pubchem assays (depositor defined):AID2013, AID2026]; format: functional
[10] = biological target: T7, Cannabinoid receptor 1 (Homo sapiens, UniProt P21554); test: SAR analysis of antagonists of the Cannabinoid Receptor 1 using an Image-Based Assay - Set 4. [Related pubchem assays (depositor defined):AID2013, AID2026]; format: functional
[11] = biological target: T5, G-protein coupled receptor 35; test: SAR analysis of Antagonists of the GPR35 Receptor using an Image-Based Assay - Set 6. [Related pubchem assays (depositor defined):AID2013, AID2026]; format: functional
[12] = biological target: T5, G-protein coupled receptor 35; test: SAR analysis of Agonists of the GPR35 Receptor using an Image-Based Assay - Set 4. [Related pubchem assays (depositor defined):AID2013, AID2026]; format: functional
[13] = biological target: T7, Cannabinoid receptor 1; test: SAR analysis of agonists of the Cannabinoid Receptor 1 using an Image-Based Assay - Set 4. [Related pubchem assays (depositor defined):AID2013, AID2026]; format: functional
[14] = biological target: T8, CAAX prenyl protease 2 (Saccharomyces cerevisiae S288c, UniProt Q03530); format: biochemical
T8 sequence (Q03530 whole entry): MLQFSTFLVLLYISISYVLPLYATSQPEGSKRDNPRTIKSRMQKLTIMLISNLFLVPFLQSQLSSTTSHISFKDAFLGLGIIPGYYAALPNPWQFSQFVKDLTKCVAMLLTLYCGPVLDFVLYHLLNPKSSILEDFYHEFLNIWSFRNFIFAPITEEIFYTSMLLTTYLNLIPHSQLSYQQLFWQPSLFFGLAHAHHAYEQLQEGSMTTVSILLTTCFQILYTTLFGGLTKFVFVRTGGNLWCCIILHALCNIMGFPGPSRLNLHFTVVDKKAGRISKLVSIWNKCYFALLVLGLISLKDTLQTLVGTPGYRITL

[15] = biological target: CAAX prenyl protease 1 (Saccharomyces cerevisiae S288c, UniProt P47154); test: Ste24 protease inhibitors, dose response, biochemical, S. cerevisiae, plate reader, cherry-pick (AID 488815)
[16] = biological target: SUMO E1/E2 (Homo sapiens, UniProt P63279+Q9UBE0+Q9UBT2); test: SAR analysis of SUMOylation using HTRF in an in-Vitro dose response assay. [Related pubchem assays (depositor defined):AID2006, AID2011, AID2018, AID2069, AID2658]; format: functional
Sequence of SUMO E1/E2 (Q9UBE0 whole entry): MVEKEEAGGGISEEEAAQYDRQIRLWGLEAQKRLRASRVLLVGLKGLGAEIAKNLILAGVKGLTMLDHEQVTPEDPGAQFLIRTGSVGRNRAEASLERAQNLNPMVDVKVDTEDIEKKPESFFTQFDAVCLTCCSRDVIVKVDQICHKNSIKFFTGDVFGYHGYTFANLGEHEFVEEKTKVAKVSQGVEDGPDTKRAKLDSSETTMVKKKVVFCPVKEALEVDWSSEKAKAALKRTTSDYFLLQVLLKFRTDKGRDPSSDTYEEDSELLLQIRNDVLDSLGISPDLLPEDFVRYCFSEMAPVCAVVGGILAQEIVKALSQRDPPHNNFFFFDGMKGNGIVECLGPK
Sequence of SUMO E1/E2 (Q9UBT2 whole entry): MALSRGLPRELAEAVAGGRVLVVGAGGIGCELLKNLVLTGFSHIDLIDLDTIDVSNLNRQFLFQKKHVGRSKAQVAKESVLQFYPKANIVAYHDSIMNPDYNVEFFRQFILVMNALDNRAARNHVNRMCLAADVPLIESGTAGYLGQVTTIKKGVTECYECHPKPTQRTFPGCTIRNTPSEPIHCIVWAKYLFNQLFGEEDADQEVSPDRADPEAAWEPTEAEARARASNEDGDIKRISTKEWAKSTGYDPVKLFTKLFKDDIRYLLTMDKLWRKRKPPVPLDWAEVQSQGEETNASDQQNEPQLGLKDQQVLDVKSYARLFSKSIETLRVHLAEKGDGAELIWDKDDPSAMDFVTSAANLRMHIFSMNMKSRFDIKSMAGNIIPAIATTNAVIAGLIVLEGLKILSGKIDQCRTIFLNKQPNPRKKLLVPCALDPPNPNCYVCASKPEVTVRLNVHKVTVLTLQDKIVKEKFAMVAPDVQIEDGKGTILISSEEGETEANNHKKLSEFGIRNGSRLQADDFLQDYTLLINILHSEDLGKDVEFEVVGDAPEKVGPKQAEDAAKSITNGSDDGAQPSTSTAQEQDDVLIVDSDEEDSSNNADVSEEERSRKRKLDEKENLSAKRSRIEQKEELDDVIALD
Sequence of SUMO E1/E2 (P63279 whole entry): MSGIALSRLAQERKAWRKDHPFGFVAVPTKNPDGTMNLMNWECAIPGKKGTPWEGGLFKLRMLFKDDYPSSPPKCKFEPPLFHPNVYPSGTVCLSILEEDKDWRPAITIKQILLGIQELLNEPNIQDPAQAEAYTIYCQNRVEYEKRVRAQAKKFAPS

T5 sequence (Q9HC97 whole entry): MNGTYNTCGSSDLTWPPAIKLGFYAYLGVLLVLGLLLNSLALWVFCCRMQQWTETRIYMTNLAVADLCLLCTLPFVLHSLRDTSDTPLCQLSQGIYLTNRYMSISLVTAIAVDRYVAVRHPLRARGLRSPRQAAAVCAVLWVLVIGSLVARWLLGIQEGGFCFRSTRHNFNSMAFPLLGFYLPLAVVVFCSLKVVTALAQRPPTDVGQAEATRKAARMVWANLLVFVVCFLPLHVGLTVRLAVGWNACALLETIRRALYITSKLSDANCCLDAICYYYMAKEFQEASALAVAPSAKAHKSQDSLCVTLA
T2 sequence (Q9Y2T6 whole entry): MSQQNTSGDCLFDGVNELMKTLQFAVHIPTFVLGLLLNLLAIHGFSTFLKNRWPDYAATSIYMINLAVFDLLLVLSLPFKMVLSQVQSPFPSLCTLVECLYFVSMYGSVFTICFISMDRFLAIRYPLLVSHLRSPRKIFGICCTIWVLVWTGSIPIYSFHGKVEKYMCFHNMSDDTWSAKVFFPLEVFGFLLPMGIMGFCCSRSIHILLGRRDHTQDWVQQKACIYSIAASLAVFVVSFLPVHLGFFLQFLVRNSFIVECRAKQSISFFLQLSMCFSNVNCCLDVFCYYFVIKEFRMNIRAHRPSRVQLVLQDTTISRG
T6 sequence (P34972 whole entry): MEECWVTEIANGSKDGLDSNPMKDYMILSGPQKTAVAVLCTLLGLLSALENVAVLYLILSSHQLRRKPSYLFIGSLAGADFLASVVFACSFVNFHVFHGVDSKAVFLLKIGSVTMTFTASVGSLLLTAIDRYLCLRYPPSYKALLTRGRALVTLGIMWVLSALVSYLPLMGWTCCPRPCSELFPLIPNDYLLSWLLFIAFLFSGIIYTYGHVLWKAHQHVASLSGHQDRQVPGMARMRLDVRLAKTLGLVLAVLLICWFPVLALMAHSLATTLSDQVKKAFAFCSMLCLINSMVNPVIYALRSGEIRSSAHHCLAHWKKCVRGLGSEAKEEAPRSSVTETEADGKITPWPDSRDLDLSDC
T7 sequence (P21554 whole entry): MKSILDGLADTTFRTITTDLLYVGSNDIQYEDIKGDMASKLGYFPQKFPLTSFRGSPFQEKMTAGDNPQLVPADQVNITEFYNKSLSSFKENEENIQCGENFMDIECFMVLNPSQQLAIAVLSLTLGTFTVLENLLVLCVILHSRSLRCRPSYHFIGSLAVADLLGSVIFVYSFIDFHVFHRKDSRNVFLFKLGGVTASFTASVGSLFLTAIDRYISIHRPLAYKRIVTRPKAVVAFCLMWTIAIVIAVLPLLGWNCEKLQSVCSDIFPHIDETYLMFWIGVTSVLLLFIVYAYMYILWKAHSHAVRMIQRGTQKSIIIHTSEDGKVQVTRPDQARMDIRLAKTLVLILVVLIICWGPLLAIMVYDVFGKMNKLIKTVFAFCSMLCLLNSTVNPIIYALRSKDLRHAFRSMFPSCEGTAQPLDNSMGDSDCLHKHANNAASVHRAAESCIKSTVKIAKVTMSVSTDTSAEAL
Sequence of CAAX prenyl protease 1 (P47154 whole entry): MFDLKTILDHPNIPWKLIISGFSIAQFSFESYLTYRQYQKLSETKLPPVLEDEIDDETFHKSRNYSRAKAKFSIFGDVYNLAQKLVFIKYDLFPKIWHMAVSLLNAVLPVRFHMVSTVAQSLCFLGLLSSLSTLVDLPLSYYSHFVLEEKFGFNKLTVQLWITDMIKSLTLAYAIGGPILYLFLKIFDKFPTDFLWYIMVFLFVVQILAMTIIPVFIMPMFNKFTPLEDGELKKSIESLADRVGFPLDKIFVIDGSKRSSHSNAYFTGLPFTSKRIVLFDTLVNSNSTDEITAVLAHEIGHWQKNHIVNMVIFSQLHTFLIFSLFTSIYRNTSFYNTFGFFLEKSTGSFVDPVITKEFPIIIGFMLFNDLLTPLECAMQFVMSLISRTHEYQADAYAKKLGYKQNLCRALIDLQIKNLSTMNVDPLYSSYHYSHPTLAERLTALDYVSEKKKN

With COc1ccc(/C=C2\SC(=S)N(CCCC(=O)Nc3ccc(C(=O)O)c(O)c3)C2=O)cc1OC the IC50 [1] was 9.74 µM (active), the IC50 [2] was > 32 µM (inactive) and the IC50 [3] was 17.9 µM (active). The IC50 [4] was 58.5 µM (active), the IC50 [5] was 0.522 µM (active) and the IC50 [6] was > 100 µM (inactive).
In the case of COc1ccc(-c2c(-c3ccc(OCCN4CCOCC4)cc3O)n[nH]c2C)cc1, the IC50 [7] is reported as > 32 µM (inactive), the EC50 [8] is reported as > 32 µM (inactive) and the IC50 [9] is reported as 26.8 µM (inactive). For the same molecule, the IC50 [10] was 3.78 µM (active), the IC50 [11] was > 32 µM (inactive) and the EC50 [12] was > 32 µM (inactive). The EC50 [13] was > 32 µM (inactive).
In the case of Cc1cc(C)c2cc(C#N)c(NCCCNC(=O)CCC(=O)O)nc2c1, the AC50 [14] is reported as 36.9 µM (active) and the AC50 [15] is reported as 29.9 µM (active).
With Cc1ccc(N=Cc2sccc2C)cc1C the IC50 [16] was > 100 µM (inactive).
